Reference: paper PMC7482066, “Unstable Mechanisms of Resistance to Inhibitors of Escherichia coli Lipoprotein Signal Peptidase” (mBio, 2020)
“Also recorded” adds a separate entry of the source.

Columns and labels:
Lpp = Lpp localization in peptidoglycan-associated and membrane fractions, Western blot; format: cell-based, E. coli; conditions: CFT073, 2× MIC G0790
Procedure: Purification of peptidoglycan-associated proteins (PAPs) was performed according to published methods ([43], [67], [68]) with some modifications. Briefly, bacteria were harvested in mid-exponential phase for treatment and then subjected to PAP extraction by resuspending cell pellets from an optical density (OD; A600) of 10 in 6 ml of PAP extraction buffer containing 2% (wt/vol) SDS in 100 mM Tris-HCl (pH 8.0) with 100 mM NaCl, 10% glycerol, and cOmplete mini EDTA-free protease inhibitor cocktail (Sigma-Aldrich). After 60 min at room temperature (RT), the extraction was subjected to centrifugation at 100,000 × g for 60 min at 22°C, and the pellet, containing peptidoglycan-associated proteins, was washed once with the same PAP extraction buffer with centrifugation at 100,000 × g for 30 min and resuspended in 200 μl of PAP extraction buffer (referred to as the SDS-insoluble or PAP fraction). The supernatant containing the SDS-soluble fraction was aliquoted and frozen (referred to as the non-PAP fraction). Both fractions were treated with equal volumes of BugBuster buffer prior to the addition of sample buffer for Western immunoblotting as described above.
The inner and outer membrane fractionations of bacterial cells were performed according to published methods ([69]), with some modifications. […]

[1] = test system: G0790-resistant E. coli CFT073; experiment: Population analysis profile (heteroresistance); format: cell-based; conditions: MHII agarose, 18 h, 37°C
Procedure: The population analysis profiles of G0790 heteroresistant subpopulations were determined according to a method described previously ([79]). Briefly, three independent cultures for each G0790-resistant mutant strain were grown overnight at 37°C in MHBII containing G0790 at sub-MICs to maintain selective pressure. Five microliters or 10-fold serial dilution (10^−1 to 10^−7) in duplicates for each culture were transferred to MHII agarose plates or MHII agarose plates containing a range of G0790 concentrations (100, 75, 50, 37.5, 25, 12.5, 6.25, 3.125, 1.56, 0.8, and 0.4 μM). CFU were enumerated after incubation at 37°C for 18 h. Heteroresistance was defined using the criteria published by El-Halfawy and colleagues, which states there should be a >8-fold difference between the highest noninhibitory concentration and the highest inhibitory concentration ([2], [80]).

E. coli CFT073 = experiment: Electron microscopy / live-cell imaging of morphology; format: cell-based; conditions: CFT073, 2× MIC, 1 h (EM)
Procedure: Electron microscopy was performed as previously described ([61]). […] Cells were immediately placed between a coverslip and a 1% MHII agarose pad containing 12.4 μM G0790 and 10 μg/ml gentamicin for imaging. Cells were maintained at 37°C during imaging with a stage-top chamber (Okolab Inc.). Cells were imaged on a Nikon Eclipse Ti inverted confocal microscope (Nikon Instruments Inc.) coupled with an UltraVIEW VoX (PerkinElmer Inc.) and a 100× (numerical aperture [NA] 1.40) oil-immersion lens objective. Images were captured at various times using an ORCA-Flash 4.0 CMOS camera (Hamamatsu Photonics), collected using Volocity software (Quorum Technologies), and processed using Fiji ([66]).

CCCCCC[C@H]1OC(=O)CNC(=O)[C@H]([C@H](C)O)NC(=O)[C@H](CN)NC(=O)[C@H](C2CCCCC2)NC(=O)[C@H](CCC)N(C)C(=O)[C@@H]1C [G0790]
Lpp localization after treatment (Lpp): loss of the peptidoglycan-associated form of Lpp in the outer membrane and its accumulation in the inner membrane | Fold difference between highest inhibitory and highest noninhibitory concentration ([1]; CFT073 4×-R3): 128 fold | Fold difference between highest inhibitory and highest noninhibitory concentration ([1]; CFT073 4×-R10): 96 fold | Fold difference between highest inhibitory and highest noninhibitory concentration ([1]; CFT073 8×-R5): 12 fold | Cell morphology / membrane accumulation (E. coli CFT073): globular cell morphology and accumulation of bacterial membranes; also recorded: changes in cellular morphology and membrane accumulation
